We go through 8 compounds from PubChem BioAssay (NCI).

SMILES strings stand for the structures.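 Step 1: Grow cells in 96-well plates. Step 2: Expose to compound for 48 hours at 5 concentrations. Step 3: Interpolate endpoints linearly; if unreached, use highest concentration. TGI: total growth inhibition.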

Among the test systems are A498 renal; BT-549 breast; CAKI-1 renal; EKVX NSCLC; HCC-2998 colon; HCT-116 colon; K-562 leukemia; LOX IMVI melanoma; MALME-3M melanoma; MCF7 breast; MDA-MB-435; NCI-H460 lung; OVCAR-3 ovarian; PC-3 prostate; SF-539 CNS; SK-MEL-2 melanoma; SK-MEL-5 melanoma; SK-OV-3 ovarian; SN12C renal; SNB-75 CNS.
Common to all, as to assay: inhibition of tumour cell growth, NCI panel, 48 h

With `O=C1N(C2CCCCC2)C(=O)N1C1CCCCC1`, the TGI in the assay on A498 renal was 2.37 µM; in the assay with BT-549 breast, 5.29 µM; in the assay on CAKI-1 renal, 25.2 µM; in the assay on EKVX NSCLC, > 100 µM; in the assay with HCC-2998 colon it was > 47.3 µM; with HCT-116 colon, 14.1 µM. Moreover, the TGI in the assay on K-562 leukemia was 13.4 µM; in the assay on LOX IMVI melanoma, 11.1 µM; with MALME-3M melanoma, 11.7 µM; in the assay with MCF7 breast, 48.6 µM; in the assay on MDA-MB-435, > 81.4 µM; in the assay with NCI-H460 lung, 30.3 µM. The TGI in the assay with OVCAR-3 ovarian was > 100 µM; in the assay on PC-3 prostate, > 45.7 µM; with SF-539 CNS it was 45.1 µM; in the assay on SK-MEL-2 melanoma, 85.5 µM; with SK-MEL-5 melanoma, 4.88 µM; in the assay with SK-OV-3 ovarian, 59.9 µM. Also, the TGI in the assay with SN12C renal was 16.1 µM; in the assay with SNB-75 CNS, > 100 µM.
Take `CN1CCc2cc3c(c4c2C1C(O)c1ccccc1-4)OCO3` (stereo not given): the TGI in the assay with A498 renal is 8.45 µM; in the assay on BT-549 breast it was 19.4 µM; in the assay on CAKI-1 renal it was 18.2 µM; in the assay on EKVX NSCLC, 35.4 µM; with HCC-2998 colon it was 22.2 µM; in the assay on HCT-116 colon it was > 100 µM. The TGI amounted to 63.5 µM in the assay on K-562 leukemia; 25.1 µM with LOX IMVI melanoma; 23.2 µM with MALME-3M melanoma; 19.3 µM in the assay with MCF7 breast; 28 µM in the assay with MDA-MB-435; 11.9 µM in the assay on NCI-H460 lung. In addition, the TGI in the assay with OVCAR-3 ovarian was 44.1 µM; with PC-3 prostate it was 18.6 µM; in the assay with SF-539 CNS it was > 100 µM; in the assay on SK-MEL-2 melanoma, 21.7 µM; with SK-MEL-5 melanoma, 26.4 µM; with SK-OV-3 ovarian, > 100 µM. For the same compound, the TGI in the assay with SN12C renal came out at 11.1 µM; in the assay on SNB-75 CNS, 28.5 µM.
Take `C=Cc1nc2c(Cl)ncnc2n1Cc1ccccc1`: the TGI in the assay with A498 renal was found to be 22.4 µM; in the assay on BT-549 breast, 10.9 µM; in the assay with CAKI-1 renal, 3.99 µM; in the assay with EKVX NSCLC, 10.3 µM; in the assay on HCC-2998 colon, 6.76 µM; with HCT-116 colon it was 4.72 µM. Besides, the TGI in the assay with K-562 leukemia was > 40.1 µM; in the assay with LOX IMVI melanoma, 8.44 µM; in the assay with MALME-3M melanoma, 15.1 µM; in the assay with MCF7 breast, 9.53 µM; in the assay on MDA-MB-435 it was 10.1 µM; in the assay with NCI-H460 lung, 23.6 µM. The TGI in the assay on OVCAR-3 ovarian was determined as 7.95 µM; in the assay on PC-3 prostate it was 14.5 µM; in the assay on SF-539 CNS, 8.77 µM; with SK-MEL-2 melanoma it was 26.3 µM; in the assay with SK-MEL-5 melanoma, 8.69 µM; in the assay with SK-OV-3 ovarian, 31 µM. Besides, the TGI worked out at 17.5 µM in the assay with SN12C renal and 28.4 µM in the assay on SNB-75 CNS.
`O=C(C1OC1c1ccc(Cl)cc1)C12CC3CC(CC(C3)C1)C2` (stereo not given): the TGI with A498 renal amounted to 46.7 µM; in the assay on BT-549 breast it was 52.1 µM; in the assay on CAKI-1 renal, 67.5 µM; with EKVX NSCLC, 56.3 µM; in the assay on HCC-2998 colon it was 35.4 µM; with HCT-116 colon, 28.8 µM. The TGI is 51.2 µM in the assay on K-562 leukemia; 16.6 µM in the assay with LOX IMVI melanoma; 69.8 µM with MALME-3M melanoma; 73.9 µM with MCF7 breast; 33.1 µM in the assay on MDA-MB-435; 31.8 µM in the assay on NCI-H460 lung. The TGI in the assay on OVCAR-3 ovarian was 30 µM; with PC-3 prostate, 79.9 µM; in the assay on SF-539 CNS it was 32.5 µM; in the assay on SK-MEL-2 melanoma, 43.6 µM; in the assay with SK-MEL-5 melanoma, 28.6 µM; in the assay with SK-OV-3 ovarian, 74 µM. The TGI with SN12C renal was determined as 32.2 µM; in the assay with SNB-75 CNS, 96.1 µM.
Turning to `COc1ccc(N2CN3OC(=O)N(c4ccc(OC)cc4)[C@@]3(c3ccccc3)C2)cc1`, the TGI with A498 renal, with BT-549 breast, in the assay with CAKI-1 renal, in the assay on EKVX NSCLC, in the assay on HCC-2998 colon and with HCT-116 colon was > 100 µM in each case. Further, the TGI in the assay on K-562 leukemia is > 100 µM; in the assay on LOX IMVI melanoma, > 100 µM; in the assay with MALME-3M melanoma, > 100 µM; with MCF7 breast, > 100 µM; with MDA-MB-435, 7.12 µM; in the assay with NCI-H460 lung, > 100 µM. Besides, the TGI is 48.9 µM in the assay on OVCAR-3 ovarian; 67.3 µM in the assay with PC-3 prostate; > 100 µM in the assay on SF-539 CNS; 45.1 µM in the assay on SK-MEL-2 melanoma; 76.9 µM with SK-MEL-5 melanoma; > 100 µM with SK-OV-3 ovarian. The TGI in the assay with SN12C renal was > 100 µM; in the assay on SNB-75 CNS it was 95.2 µM.
With `NC(=O)C(=CNC(N)=S)C(N)=O`, the TGI with A498 renal, with BT-549 breast, with CAKI-1 renal, with EKVX NSCLC, with HCC-2998 colon and in the assay on HCT-116 colon was > 100 µM each time. Besides, the TGI in the assay with K-562 leukemia, in the assay with LOX IMVI melanoma, in the assay on MALME-3M melanoma, with MCF7 breast, in the assay on MDA-MB-435 and in the assay with NCI-H460 lung was > 100 µM in each case. Further, the TGI in the assay on OVCAR-3 ovarian, with PC-3 prostate, with SF-539 CNS, with SK-MEL-2 melanoma, with SK-MEL-5 melanoma and in the assay with SK-OV-3 ovarian was > 100 µM each time. The TGI with SN12C renal and in the assay on SNB-75 CNS was > 100 µM in each case.
`COc1ccccc1CCN1CCN(CCCc2ccccc2)CC1`: the TGI in the assay on A498 renal, in the assay on BT-549 breast, with CAKI-1 renal, in the assay on EKVX NSCLC, in the assay with HCC-2998 colon and in the assay on HCT-116 colon was > 100 µM throughout. Besides, the TGI in the assay with K-562 leukemia, in the assay on LOX IMVI melanoma, in the assay with MALME-3M melanoma, in the assay with MCF7 breast, with MDA-MB-435 and in the assay on NCI-H460 lung was > 100 µM each time. Further, the TGI in the assay on OVCAR-3 ovarian was > 100 µM; in the assay on PC-3 prostate it was > 100 µM; with SF-539 CNS, > 100 µM; in the assay on SK-MEL-2 melanoma, > 100 µM; in the assay with SK-MEL-5 melanoma, 45.7 µM; in the assay with SK-OV-3 ovarian, > 100 µM. Besides, the TGI in the assay with SN12C renal and with SNB-75 CNS was > 100 µM throughout.
With `NC1c2c(Br)sc(N3CCCC3)c2C(=O)C1O` (stereo not given), the TGI in the assay with A498 renal, in the assay on BT-549 breast, with CAKI-1 renal, in the assay on EKVX NSCLC, in the assay on HCC-2998 colon and in the assay with HCT-116 colon was > 50 µM each time. Further, the TGI in the assay with K-562 leukemia, in the assay on LOX IMVI melanoma, in the assay with MALME-3M melanoma, in the assay on MCF7 breast, in the assay with MDA-MB-435 and in the assay on NCI-H460 lung was > 50 µM throughout. In addition, the TGI in the assay with OVCAR-3 ovarian, with PC-3 prostate, with SF-539 CNS, in the assay with SK-MEL-2 melanoma, with SK-MEL-5 melanoma and with SK-OV-3 ovarian was > 50 µM each time. Also, the TGI with SN12C renal and in the assay on SNB-75 CNS was > 50 µM in each case.
